The values below come from patent publication US20180036382A1, “FORMULATIONS FOR ORAL ADMINISTRATION OF ACTIVE AGENTS WITH CONTROLLED ABSORPTION PROFILE” (Entera Bio Ltd., priority 2015, published 2018).

What all share (format): in vivo, human
Data set [1] can be described thus: Pharmacokinetic study of oral teriparatide tablet in healthy volunteers (Example 1). On the procedure: An open label comparative pharmacokinetic study was performed in healthy volunteers over the course of 3 months. Each volunteer received—in each of two visits—the same oral tablet containing 0.75 mg of teriparatide, a recombinant form of parathyroid hormone (1-34).
The formulation was composed of teriparatide (0.75 mg), SNAC (sodium 8-N-(2-hydroxybenzoyl) aminocaprylate), soybean trypsin inhibitor (SBTI) and a small amount of magnesium stearate.
Tablets were administered in the morning after an 8-hour overnight fast and immediately followed by 150 ml of water. At each visit a standard meal was provided 3 hours after drug administration. […] There was a two weeks period between the visits.
(§1) To determine parathyroid hormone (1-34) (PTH(1-34)) concentrations, blood samples (4 ml each) were drawn via an indwelling catheter from the forearm vein at predetermined time points during each visit. The cannula was flushed with 1.5 ml normal saline after each sampling. In addition, to avoid sample dilution, 1 ml of blood was drawn and discarded before the next sample. The blood samples were taken at following times: baseline (predose), 10 minutes, 15 minutes, 20 minutes, 30 minutes, 45 minutes, 60 minutes, 75 minutes, 90 minutes, 105 minutes, 2 hours, 3 hours, 4 hours and 5 hours post-administration. Each blood sample was collected into a single tube containing EDTA (ethylenediaminetetraacetic acid) and placed on ice. Within 15 minutes of blood collection, samples were centrifuged for 10 minutes at 4° C. (2500 rotations per minute) and the plasma was separated and divided into two or three aliquots. Each aliquot was transferred into appropriately labeled polypropylene tubes and stored at approximately −20° C. pending analysis. PTH (1-34) levels were measured using an IDS-iSYS automated assay for the measurement of intact PTH (1-34) in human plasma or serum.

A short description of data set [2]: Phase I clinical trial of oral teriparatide formulations, plasma PTH (1-34) versus subcutaneous injection (Example 2). The method, then: A Phase I clinical study of exemplary oral formulations comprising teriparatide (parathyroid hormone (1-34)) was conducted at the Hadassah Clinical Research Center. 42 healthy volunteers were included throughout the study.
The formulation was composed of teriparatide (200, 400, 680, 1400 or 1800μ.g), SNAC (sodium 8-N-(2-hydroxybenzoyl) aminocaprylate), soybean trypsin inhibitor and magnesium stearate.
Tablets were administered in the morning after an 8-hour overnight fast and immediately followed by 150 ml of water. At each visit a standard meal was provided 3 hours after drug administration.
as §1, with “hormone” for “hormone (1-34) (PTH(1-34))”, “points.” for “points during each visit.”, “(predose),” for “(predose), 10 minutes,”, “15” for “15 minutes, 20”
Oral administration of teriparatide was performed as described hereinabove at doses of 200, 400, 680, 1400 or 1800 μg. The Cmax of PTH (1-34) for each orally administered dose was compared with the Cmax of PTH (1-34) for subcutaneous injection of 20 μg teriparatide.

The subject of data set [3] is cAMP, a known marker of PTH activity. Nature of the data set: Plasma cAMP levels after teriparatide administration (marker of PTH activity). To be noted: FIG. 4. The method, then:
In addition, plasma levels of cAMP, a known marker of PTH activity, were determined in order to confirm biological activity of administered PTH. cAMP plasma levels were measured following oral administration of 680 μg teriparatide or subcutaneous injection of 20 μg teriparatide, as described hereinabove.

Consider `CC[C@H](C)[C@H](NC(=O)[C@H](CCC(=O)O)NC(=O)[C@H](CO)NC(=O)[C@@H](NC(=O)[C@@H](N)CO)C(C)C)C(=O)N[C@@H](CCC(N)=O)C(=O)N[C@@H](CC(C)C)C(=O)N[C@@H](CCSC)C(=O)N[C@@H](Cc1cnc[nH]1)C(=O)N[C@@H](CC(N)=O)C(=O)N[C@@H](CC(C)C)C(=O)NCC(=O)N[C@@H](CCCCN)C(=O)N[C@@H](Cc1cnc[nH]1)C(=O)N[C@@H](CC(C)C)C(=O)N[C@@H](CC(N)=O)C(=O)N[C@@H](CO)C(=O)N[C@@H](CCSC)C(=O)N[C@@H](CCC(=O)O)C(=O)N[C@@H](CCCN=C(N)N)C(=O)N[C@H](C(=O)N[C@@H](CCC(=O)O)C(=O)N[C@@H](Cc1c[nH]c2ccccc12)C(=O)N[C@@H](CC(C)C)C(=O)N[C@@H](CCCN=C(N)N)C(=O)N[C@@H](CCCCN)C(=O)N[C@@H](CCCCN)C(=O)N[C@@H](CC(C)C)C(=O)N[C@@H](CCC(N)=O)C(=O)N[C@@H](CC(=O)O)C(=O)N[C@H](C(=O)N[C@@H](Cc1cnc[nH]1)C(=O)N[C@@H](CC(N)=O)C(=O)N[C@@H](Cc1ccccc1)C(=O)O)C(C)C)C(C)C` [teriparatide], for which, in data set [1] (oral tablet 0.75 mg teriparatide with SNAC, SBTI, magnesium stearate, fasted healthy volunteers, plasma PTH (1-34), one table row per individual subject (A, B, C)), the “Cmax after 1st administration” value worked out at 35 picogram/ml. In data set [1] (oral tablet 0.75 mg teriparatide, FIGS. 1A-1C), the “time for parathyroid hormone (1-34) levels to return to baseline levels after tablet administration” value is not above 60 min. Further, the “time after administration at which peak concentration (Cmax) occurred” value in data set [1] (oral tablet 0.75 mg teriparatide, all subjects and administrations, Table 3, FIGS. 1A-1C) was not above 20 min. Further, the “Cmax after 2nd administration” value in data set [1] (same oral tablet 0.75 mg teriparatide, second visit two weeks later, plasma PTH (1-34), one table row per individual subject (A, B, C)) is 36 picogram/ml. Also, the “decline of PTH levels following oral administration compared with subcutaneous administration” value in data set [2] (oral 1800 μg versus subcutaneous 20 μg teriparatide, FIG. 3) is recorded as “declined considerably more rapidly”. Besides, in data set [2] (oral doses 200, 400, 680, 1400 or 1800 μg teriparatide, FIG. 2), the “dose dependence of Cmax of PTH (1-34) following oral administration” value is listed as “proportional to the dose”. In addition, in data set [2] (oral tablets with SNAC, soybean trypsin inhibitor, magnesium stearate, FIG. 2), the “oral dose providing a Cmax equivalent to that of subcutaneous administration of 20 μg teriparatide” value is on record as “roughly 750 μg”. Further, the “plasma cAMP levels” value is reported as “increased plasma cAMP levels to a similar degree” in data set [3] (oral administration of 680 μg teriparatide, compared with subcutaneous 20 μg) and “increased plasma cAMP levels to a similar degree” in data set [3] (subcutaneous administration of 20 μg teriparatide, compared with oral 680 μg).
